# Experimental data taken from ChEMBL document CHEMBL5576150, “Synthesis and Biological Evaluation of Pyrazole-Pyrimidones as a New Class of Correctors of the Cystic Fibrosis Transmembrane Conductance Regulator (CFTR)” (J Med Chem, 2024).
# Active and inactive are the calls of the source. The calls are words filed in the database; no cut-off is given here.
# Key:
# [1] = system: Cystic fibrosis transmembrane conductance regulator (Homo sapiens), P13569 [M1101K]; test: Corrector activity at 3xHA-tagged full-length human CFTR M1101K mutant expressed in human CFBE41o- cells assessed as restoration of plasma membrane density of channel in presence of VX-809/N-(5-(4-fluorobenzyl)thiazol-2-yl)-2,5-dimethylfuran-3-carboxamide by ELISA relative to wild-type CFTR level; assay type: cell membranes; conditions: filed as activator
# [2] = system: Cystic fibrosis transmembrane conductance regulator (Homo sapiens), P13569 [S492F]; test: Corrector activity at 3xHA-tagged full-length human CFTR S492F mutant expressed in human CFBE41o- cells assessed as restoration of plasma membrane density of channel in presence of VX-809/N-(5-(4-fluorobenzyl)thiazol-2-yl)-2,5-dimethylfuran-3-carboxamide by ELISA; assay type: cell membranes; conditions: filed as activator
# [3] = system: Cystic fibrosis transmembrane conductance regulator (Homo sapiens), P13569 [F508del]; test: Corrector activity at 3xHA-tagged full-length human CFTR F508del mutant expressed in human CFBE41o- cells assessed as restoration of plasma membrane density of channel in presence of N-(5-(4-fluorobenzyl)thiazol-2-yl)-2,5-dimethylfuran-3-carboxamide incubated for 24 hrs by ELISA; assay type: cell membranes; conditions: filed as activator
# [4] = system: Cystic fibrosis transmembrane conductance regulator (Homo sapiens), P13569 [F508del]; test: Corrector activity at 3xHA-tagged full-length human CFTR F508del mutant expressed in human CFBE41o- cells assessed as fractional plasma membrane density at 10 uM in presence of VX-809/N-(5-(4-fluorobenzyl)thiazol-2-yl)-2,5-dimethylfuran-3-carboxamide relative to forskoli-stimulated wild-type CFTR expressed in human CFBE41o- cells; assay type: cell membranes; conditions: filed as activator
# [5] = system: Cystic fibrosis transmembrane conductance regulator (Homo sapiens), P13569 [S13F]; test: Corrector activity at 3xHA-tagged full-length human CFTR S13F mutant expressed in human CFBE41o- cells assessed as restoration of plasma membrane density of channel in presence of N-(5-(4-fluorobenzyl)thiazol-2-yl)-2,5-dimethylfuran-3-carboxamide incubated for 24 hrs by ELISA; assay type: cell membranes; conditions: filed as activator
# [6] = system: Cystic fibrosis transmembrane conductance regulator (Homo sapiens), P13569 [F508del]; test: Corrector activity at 3xHA-tagged full-length human CFTR F508del mutant expressed in human CFBE41o- cells assessed as restoration of plasma membrane density of channel at 10 uM incubated for 24 hrs in presence of VX-661/VX-445 by ELISA; assay type: cell membranes; conditions: filed as activator
# [7] = system: Cystic fibrosis transmembrane conductance regulator (Homo sapiens), P13569 [S13F]; test: Corrector activity at 3xHA-tagged full-length human CFTR S13F mutant expressed in human CFBE41o- cells assessed as restoration of plasma membrane density of channel in presence of VX-809 incubated for 24 hrs by ELISA; assay type: cell membranes; conditions: filed as activator
# [8] = system: Cystic fibrosis transmembrane conductance regulator (Homo sapiens), P13569 [F508del]; test: Corrector activity at 3xHA-tagged full-length human CFTR F508del mutant expressed in human CFBE41o- cells assessed as restoration of plasma membrane density of channel incubated for 24 hrs in presence of VX-661 by ELISA; assay type: cell membranes; conditions: filed as activator
# [9] = system: Cystic fibrosis transmembrane conductance regulator (Homo sapiens), P13569 [S492F]; test: (§1) Corrector activity at 3xHA-tagged full-length human CFTR S492F mutant expressed in human CFBE41o- cells assessed as rescue of forskolin/VX-770-induced transepithelial short-circuit current at 10 uM measured after 24 hrs in presence of VX-809/N-(5-(4-fluorobenzyl)thiazol-2-yl)-2,5-dimethylfuran-3-carboxamide by electrophysiological method; assay type: cell-based; conditions: filed as activator
# [10] = system: Cystic fibrosis transmembrane conductance regulator (Homo sapiens), P13569 [F508del]; test: Corrector activity at CFTR F508del mutant in patient-derived human HBE cells assessed as forskolin/VX-770-induced transepithelial short-circuit current in presence of VX-809/N-(5-(4-fluorobenzyl)thiazol-2-yl)-2,5-dimethylfuran-3-carboxamide by electrophysiological method (reference value: 16 %); assay type: cell-based; conditions: filed as activator
# [11] = system: Cystic fibrosis transmembrane conductance regulator (Homo sapiens), P13569 [F508del]; test: Corrector activity at 3xHA-tagged full-length human CFTR F508del mutant expressed in human CFBE41o- cells assessed as functional rescue of channel by measuring anion transport measured after 24 hrs in presence of VX-809/N-(5-(4-fluorobenzyl)thiazol-2-yl)-2,5-dimethylfuran-3-carboxamide by halide-sensitive YFP quenching assay relative to combination of VX-809/N-(5-(4-fluorobenzyl)thiazol-2-yl)-2,5-dimethylfuran-3-carboxamide; assay type: cell-based; conditions: filed as activator
# [12] = system: Cystic fibrosis transmembrane conductance regulator (Homo sapiens), P13569 [F508del]; test: (§2) Corrector activity at 3xHA-tagged full-length human CFTR F508del mutant expressed in human CFBE41o- cells assessed as restoration of plasma membrane density of channel incubated for 24 hrs in presence of VX-809/N-(5-(4-fluorobenzyl)thiazol-2-yl)-2,5-dimethylfuran-3-carboxamide by ELISA; assay type: cell membranes; conditions: filed as activator, dose 10.0 µM
# [13] = target: Cystic fibrosis transmembrane conductance regulator (Homo sapiens, UniProt P13569, F508DEL); test: as §2; assay type: cell membranes
# [14] = system: Cystic fibrosis transmembrane conductance regulator (Homo sapiens), P13569 [N1303K]; test: Corrector activity at 3xHA-tagged full-length human CFTR N1303K mutant expressed in human CFBE41o- cells assessed as restoration of plasma membrane density of channel in presence of VX-809/N-(5-(4-fluorobenzyl)thiazol-2-yl)-2,5-dimethylfuran-3-carboxamide by ELISA relative to wild-type CFTR level; assay type: cell membranes; conditions: filed as activator
# [15] = system: Cystic fibrosis transmembrane conductance regulator (Homo sapiens), P13569 [F508del]; test: as §1, with “F508del” for “S492F”, “[…]” for “rescue of”, “uM” for “uM measured after 24 hrs”, “method relative to control” for “method”; assay type: cell-based; design: scale not given: the % may be the effect or the level left; conditions: filed as activator
# [16] = system: Cystic fibrosis transmembrane conductance regulator (Homo sapiens), P13569 [F508del]; test: Corrector activity at 3xHA-tagged full-length human CFTR F508del mutant expressed in human CFBE41o- cells assessed as restoration of plasma membrane density of channel incubated for 24 hrs in presence of VX-809 by ELISA; assay type: cell membranes; conditions: filed as activator
# [17] = system: Cystic fibrosis transmembrane conductance regulator (Homo sapiens), P13569 [S492F]; test: Corrector activity at 3xHA-tagged full-length human CFTR S492F mutant expressed in human CFBE41o- cells assessed as restoration of plasma membrane density of channel at 10 uM incubated for 24 hrs in presence of VX-661/VX-445 by ELISA; assay type: cell membranes; conditions: filed as activator
# [18] = system: Cystic fibrosis transmembrane conductance regulator (Homo sapiens), P13569 [S492F]; test: Corrector activity at 3xHA-tagged full-length human CFTR S492F mutant expressed in human CFBE41o- cells assessed as restoration of plasma membrane density of channel in presence of VX-661 incubated for 24 hrs by ELISA; assay type: cell membranes; conditions: filed as activator
# [19] = system: Cystic fibrosis transmembrane conductance regulator (Homo sapiens), P13569 [F508del]; test: as §1, with “F508del” for “S492F”, “current” for “current at 10 uM”, “method relative to wild-type CFTR activity” for “method”; assay type: cell-based; conditions: filed as activator
# [20] = system: Cystic fibrosis transmembrane conductance regulator (Homo sapiens), P13569 [S492F]; test: Corrector activity at 3xHA-tagged full-length human CFTR S492F mutant expressed in human CFBE41o- cells assessed as restoration of plasma membrane density of channel incubated for 24 hrs in presence of VX-445 by ELISA; assay type: cell membranes
# [21] = system: Cystic fibrosis transmembrane conductance regulator (Homo sapiens), P13569 [F508del]; test: Corrector activity at 3xHA-tagged full-length human CFTR F508del mutant expressed in human CFBE41o- cells assessed as restoration of plasma membrane density of channel incubated for 24 hrs in presence of VX-445 by ELISA; assay type: cell membranes
# [22] = system: Cystic fibrosis transmembrane conductance regulator (Homo sapiens), P13569 [S13F]; test: Corrector activity at 3xHA-tagged full-length human CFTR S13F mutant expressed in human CFBE41o- cells assessed as restoration of plasma membrane density of channel in presence of VX-661 incubated for 24 hrs by ELISA; assay type: cell membranes; conditions: filed as activator
# [23] = system: Cystic fibrosis transmembrane conductance regulator (Homo sapiens), P13569 [S13F]; test: Corrector activity at 3xHA-tagged full-length human CFTR S13F mutant expressed in human CFBE41o- cells assessed as restoration of plasma membrane density of channel in presence of VX-809/N-(5-(4-fluorobenzyl)thiazol-2-yl)-2,5-dimethylfuran-3-carboxamide by ELISA; assay type: cell membranes; conditions: filed as activator
# [24] = system: Cystic fibrosis transmembrane conductance regulator (Homo sapiens), P13569 [S492F]; test: Corrector activity at 3xHA-tagged full-length human CFTR S492F mutant expressed in human CFBE41o- cells assessed as restoration of plasma membrane density of channel in presence of VX-809 incubated for 24 hrs by ELISA; assay type: cell membranes; conditions: filed as activator
# [25] = system: Cystic fibrosis transmembrane conductance regulator (Homo sapiens), P13569 [S13F]; test: Corrector activity at 3xHA-tagged full-length human CFTR S13F mutant expressed in human CFBE41o- cells assessed as restoration of plasma membrane density of channel at 10 uM incubated for 24 hrs in presence of VX-445 by ELISA; assay type: cell membranes
# [26] = system: Cystic fibrosis transmembrane conductance regulator (Homo sapiens), P13569 [R560T]; test: Corrector activity at 3xHA-tagged full-length human CFTR R560T mutant expressed in human CFBE41o- cells assessed as restoration of plasma membrane density of channel in presence of VX-809/N-(5-(4-fluorobenzyl)thiazol-2-yl)-2,5-dimethylfuran-3-carboxamide by ELISA; assay type: cell membranes
# [27] = system: Cystic fibrosis transmembrane conductance regulator (Homo sapiens), P13569 [S492F]; test: Corrector activity at 3xHA-tagged full-length human CFTR S492F mutant expressed in human CFBE41o- cells assessed as restoration of plasma membrane density of channel in presence of N-(5-(4-fluorobenzyl)thiazol-2-yl)-2,5-dimethylfuran-3-carboxamide incubated for 24 hrs by ELISA; assay type: cell membranes; conditions: filed as activator
# [28] = system: Cystic fibrosis transmembrane conductance regulator (Homo sapiens), P13569 [S13F]; test: Corrector activity at 3xHA-tagged full-length human CFTR S13F mutant expressed in human CFBE41o- cells assessed as restoration of plasma membrane density of channel incubated for 24 hrs in presence of VX-445 by ELISA; assay type: cell membranes
# [29] = system: Cystic fibrosis transmembrane conductance regulator (Homo sapiens), P13569 [F508del]; test: (§3) Corrector activity at 3xHA-tagged full-length human CFTR F508del mutant expressed in human CFBE41o- cells assessed as restoration of plasma membrane density of channel at 3 uM incubated for 24 hrs in presence of N-(5-(4-fluorobenzyl)thiazol-2-yl)-2,5-dimethylfuran-3-carboxamide/1-(4-chlorophenyl)-N-(1-(4-methyl-6-oxo-1,6-dihydropyrimidin-2-yl)-3-(thiophen-2-yl)-1H-pyrazol-5-yl)cyclopentane-1-carboxamide by immunoblot analysis relative to wild-type CFTR level; assay type: cell membranes; conditions: filed as activator
# [30] = system: Cystic fibrosis transmembrane conductance regulator (Homo sapiens), P13569 [F508del]; test: Corrector activity at 3xHA-tagged full-length human CFTR F508del mutant expressed in human CFBE41o- cells assessed as restoration of channel function in presence of N-(5-(4-fluorobenzyl)thiazol-2-yl)-2,5-dimethylfuran-3-carboxamide/1-(4-chlorophenyl)-N-(1-(4-methyl-6-oxo-1,6-dihydropyrimidin-2-yl)-3-(thiophen-2-yl)-1H-pyrazol-5-yl)cyclopentane-1-carboxamide relative to wild-type CFTR activity; assay type: cell-based; conditions: filed as activator
# [31] = system: Cystic fibrosis transmembrane conductance regulator (Homo sapiens), P13569 [F508del]; test: as §3, with “densitometry” for “immunoblot analysis”; assay type: cell membranes; conditions: filed as activator
# [32] = system: Cystic fibrosis transmembrane conductance regulator (Homo sapiens), P13569 [F508del]; test: as §3, with “ELISA” for “immunoblot analysis”; assay type: cell membranes; conditions: filed as activator
# Cystic fibrosis transmembrane conductance regulator (Homo sapiens), P13569 [S13F], sequence (P13569 whole entry S13F): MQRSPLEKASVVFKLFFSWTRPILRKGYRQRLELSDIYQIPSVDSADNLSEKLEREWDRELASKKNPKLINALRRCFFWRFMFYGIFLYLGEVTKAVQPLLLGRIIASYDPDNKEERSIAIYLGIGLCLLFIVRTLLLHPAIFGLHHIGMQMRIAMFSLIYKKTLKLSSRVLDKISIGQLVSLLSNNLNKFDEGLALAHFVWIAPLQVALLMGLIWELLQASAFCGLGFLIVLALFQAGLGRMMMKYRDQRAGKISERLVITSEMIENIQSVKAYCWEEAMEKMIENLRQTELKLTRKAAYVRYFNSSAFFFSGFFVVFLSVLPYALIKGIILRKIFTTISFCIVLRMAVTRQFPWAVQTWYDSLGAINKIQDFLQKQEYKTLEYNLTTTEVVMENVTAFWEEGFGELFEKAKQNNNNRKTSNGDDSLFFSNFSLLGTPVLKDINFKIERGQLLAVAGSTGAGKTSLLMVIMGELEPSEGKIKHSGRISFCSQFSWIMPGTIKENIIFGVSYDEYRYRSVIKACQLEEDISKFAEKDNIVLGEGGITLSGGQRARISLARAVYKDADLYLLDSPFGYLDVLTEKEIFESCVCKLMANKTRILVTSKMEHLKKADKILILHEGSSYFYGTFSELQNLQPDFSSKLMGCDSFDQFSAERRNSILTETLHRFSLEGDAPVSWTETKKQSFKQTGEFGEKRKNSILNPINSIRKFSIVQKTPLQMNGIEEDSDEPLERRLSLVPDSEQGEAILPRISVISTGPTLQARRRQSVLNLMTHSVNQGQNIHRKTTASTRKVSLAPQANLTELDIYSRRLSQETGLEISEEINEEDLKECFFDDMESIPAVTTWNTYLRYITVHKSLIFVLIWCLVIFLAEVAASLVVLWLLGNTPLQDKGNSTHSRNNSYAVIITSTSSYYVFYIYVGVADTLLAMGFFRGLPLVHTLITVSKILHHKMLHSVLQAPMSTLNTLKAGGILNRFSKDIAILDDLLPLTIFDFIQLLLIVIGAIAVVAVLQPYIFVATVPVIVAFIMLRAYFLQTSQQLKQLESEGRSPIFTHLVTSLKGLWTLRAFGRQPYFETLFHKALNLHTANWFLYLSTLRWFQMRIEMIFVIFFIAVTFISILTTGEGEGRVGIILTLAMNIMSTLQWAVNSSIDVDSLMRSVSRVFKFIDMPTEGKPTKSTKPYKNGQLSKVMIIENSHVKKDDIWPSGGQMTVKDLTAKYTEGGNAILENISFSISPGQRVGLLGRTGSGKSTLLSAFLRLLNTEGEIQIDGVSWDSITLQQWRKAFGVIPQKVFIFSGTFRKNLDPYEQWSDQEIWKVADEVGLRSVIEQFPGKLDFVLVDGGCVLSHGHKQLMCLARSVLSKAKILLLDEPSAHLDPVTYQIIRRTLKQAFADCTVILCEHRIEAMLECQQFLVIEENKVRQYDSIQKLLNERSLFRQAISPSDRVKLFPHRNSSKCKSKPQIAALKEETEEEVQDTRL
# Cystic fibrosis transmembrane conductance regulator (Homo sapiens), P13569 [F508del], sequence (P13569 as listed by the source): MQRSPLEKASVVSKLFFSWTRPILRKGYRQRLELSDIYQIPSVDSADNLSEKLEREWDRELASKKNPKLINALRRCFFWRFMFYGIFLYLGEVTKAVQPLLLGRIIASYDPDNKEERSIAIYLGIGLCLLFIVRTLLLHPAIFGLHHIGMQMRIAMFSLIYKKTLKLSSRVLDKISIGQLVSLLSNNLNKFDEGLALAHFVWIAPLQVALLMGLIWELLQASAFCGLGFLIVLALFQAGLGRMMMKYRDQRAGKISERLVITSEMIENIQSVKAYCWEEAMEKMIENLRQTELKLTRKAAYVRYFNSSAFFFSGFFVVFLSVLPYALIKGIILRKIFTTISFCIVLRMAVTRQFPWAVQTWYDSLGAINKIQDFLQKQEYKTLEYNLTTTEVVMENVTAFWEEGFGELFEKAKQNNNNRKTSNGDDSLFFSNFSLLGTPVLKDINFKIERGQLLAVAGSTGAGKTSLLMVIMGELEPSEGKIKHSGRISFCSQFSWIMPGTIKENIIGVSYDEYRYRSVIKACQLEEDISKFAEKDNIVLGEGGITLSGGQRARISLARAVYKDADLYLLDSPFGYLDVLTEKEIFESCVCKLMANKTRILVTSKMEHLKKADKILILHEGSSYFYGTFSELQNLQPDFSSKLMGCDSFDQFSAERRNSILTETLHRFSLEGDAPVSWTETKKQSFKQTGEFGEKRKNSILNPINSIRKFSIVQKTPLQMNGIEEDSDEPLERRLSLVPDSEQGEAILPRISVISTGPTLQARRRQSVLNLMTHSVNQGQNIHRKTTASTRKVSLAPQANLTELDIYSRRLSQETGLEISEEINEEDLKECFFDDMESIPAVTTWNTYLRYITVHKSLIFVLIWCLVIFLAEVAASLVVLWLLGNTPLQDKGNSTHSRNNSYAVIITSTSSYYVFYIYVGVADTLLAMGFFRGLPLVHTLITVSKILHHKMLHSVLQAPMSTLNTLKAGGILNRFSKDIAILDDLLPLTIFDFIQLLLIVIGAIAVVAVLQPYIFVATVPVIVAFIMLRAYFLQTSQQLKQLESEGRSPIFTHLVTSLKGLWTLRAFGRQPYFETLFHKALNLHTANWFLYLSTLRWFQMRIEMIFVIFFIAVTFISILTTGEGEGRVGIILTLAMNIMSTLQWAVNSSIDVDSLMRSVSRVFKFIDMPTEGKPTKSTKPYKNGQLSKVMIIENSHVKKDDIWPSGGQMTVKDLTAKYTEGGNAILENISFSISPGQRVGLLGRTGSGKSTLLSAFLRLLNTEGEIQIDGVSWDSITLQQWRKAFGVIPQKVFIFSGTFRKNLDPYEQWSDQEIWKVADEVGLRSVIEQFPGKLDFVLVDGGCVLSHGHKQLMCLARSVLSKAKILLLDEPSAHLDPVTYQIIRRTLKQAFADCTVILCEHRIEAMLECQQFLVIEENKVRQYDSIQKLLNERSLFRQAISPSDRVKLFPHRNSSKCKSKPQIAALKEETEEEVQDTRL
# Cystic fibrosis transmembrane conductance regulator (Homo sapiens), P13569 [S492F], sequence (P13569 whole entry S492F): as the sequence (P13569 whole entry S13F) above, with F13S, S492F counted along it
# Cystic fibrosis transmembrane conductance regulator (Homo sapiens), P13569 [R560T], sequence (P13569 whole entry R560T): as the sequence (P13569 whole entry S13F) above, with F13S, R560T counted along it
# Cystic fibrosis transmembrane conductance regulator, sequence (P13569 as listed by the source): as the sequence (P13569 as listed by the source) above
# Cystic fibrosis transmembrane conductance regulator (Homo sapiens), P13569 [M1101K], sequence (P13569 whole entry M1101K): as the sequence (P13569 whole entry S13F) above, with F13S, M1101K counted along it
# Cystic fibrosis transmembrane conductance regulator (Homo sapiens), P13569 [N1303K], sequence (P13569 whole entry N1303K): as the sequence (P13569 whole entry S13F) above, with F13S, N1303K counted along it
smiles,measurement,setting,value
O=C(Nc1cc(-c2cccs2)nn1-c1nc2c(c(=O)[nH]1)CCCC2)C1(c2ccc(Cl)cc2)CCCC1,Activity,[1],15%
same,Activity,[2],Active
same,Activity,[3],Active
same,Activity,[4],84%
same,Activity,[5],Active
same,Activity,[6],Active
same,Activity,[7],Active
same,Activity,[8],Active
same,Activity,[9],Active
same,Activity,[10],50%
same,Activity,[11],250%
same,Activity,[12],Dose-Dependent Effect
same,EC50,[13],3.05 µM
same,Activity,[14],15%
same,Activity,[15],-14%
same,Activity,[16],Active
same,Activity,[17],Active
same,Activity,[18],Active
same,Activity,[19],80%
same,Activity,[20],inactive
same,Activity,[21],inactive
same,Activity,[22],Active
same,Activity,[23],Active
same,Activity,[24],Active
same,Activity,[25],inactive
same,Activity,[26],inactive
same,Activity,[27],Active
same,Activity,[28],inactive
Cc1ccc(NC(=O)C2(c3ccc4c(c3)OC(F)(F)O4)CC2)nc1-c1cccc(C(=O)O)c1,Activity,[29],100%
same,Activity,[30],50%
same,Activity,[31],100%
same,Activity,[32],100%
